Reference: patent US20160061841A1, “NRF2-BASED CANCER TREATMENT AND DETECTION METHODS AND USES” (CanBas Co., Ltd., priority 2014, published 2016)
Entries after “also recorded” stand apart in the source; their conditions may differ. Like-named read-outs stand apart in the source and are kept apart here.

How the values were obtained:
[1] = tested on: Nrf2; conditions: Western blot
[2] = tested on: H1703 Control (Ctrl)-sh and Nrf2-sh sub-lines; test: Cell cycle distribution after SFN, CDDP and CBP501 in H1703 Ctrl-sh and Nrf2-sh sub-lines; format: cell-based, Human; conditions: SFN 24 h prior to 1 h CDDP (2.5 μg/ml)/CBP501 (1 μM)
Method: FIGS. 4C, 4D show Analysis of cell cycle distribution changes by using Flow-cytometry (n=4). SFN was subjected 24h to H1703 Control (Ctrl)-sh and Nrf2-sh sub-lines prior to lh treatment of CDDP (2.5 μg/m1)/CBP501 (1 μM). (FIG. 4C) Whole cell cycle distribution. (FIG. 4D) G2-M phase. An asterisk indicates statistical significance (TTEST; p<0.005). Error bars signify standard deviations as determined from four flowcytometric analyses.
Cell cycle analysis. Cells were plated in 24-well plates and incubated for 24 hours. The cells were treated with or without CDDP plus or minus CBP501 at the indicated concentration for the indicated times. The cells were harvested and stained with Krishan's solution (0.1% sodium citrate, 50 μg/ml propidium iodide, 20 μg/ml RNase A, 0.5% NP-40). Stained cells were analyzed by FACSCalibur (Becton Dickinson, Franklin Lakes, N.J.) using CELLQuest software (Becton Dickinson).
Lentivirus infection. Nrf2 shRNA lentivirus particles and Control shRNA lentivirus particles were purchased from SantaCruz. Lentivirus infection was performed according to manufacturer's instructions. Cells (50% confluence) were treated with 5 μg/ml Polybrene (SantaCruz) prior to virus infection. One day after addition of virus, the cells were transferred to fresh medium and cells were selected by treatment with Puromycin (SantaCruz). […]

`C[S+]([O-])CCCCN=C=S` (stereo not shown) [SFN, Sulforaphane] was tested, and the Nrf2 protein levels ([1]; H1703 cells transfected with Nrf2 shRNA) was “did not cause a similar increase”, the Nrf2 protein levels ([1]; H1703 cells transfected with control shRNA) was “increase in a dose dependent manner” and the “Effect of SFN on CBP501's effect (cell cycle distribution, G2-M)” value ([2]; H1703 Nrf2 knock-down) was “the effect of SFN was abrogated”. For the same molecule, the “Effect of SFN on CBP501's effect (cell cycle distribution, G2-M)” value ([2]; H1703 control shRNA) was “attenuated CBP501's effect; also recorded: cancels the effect of CBP501”.
